51 compounds from PubChem BioAssay AID179 (DTP/NCI, 2004) can be followed below.

Active and inactive are the calls of the source.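 The calls were made as follows: active = compounds giving half or more protection of infected cells from virus-caused growth loss, again on retest; inactive = the rest.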 Some results are limits rather than exact numbers.

This test deals with CEM cells HIV-1 protection, formazan growth assay. Description: NCI AIDS Antiviral Assay. The conditions noted are these: for IC50: measured here: growth of uninfected CEM cells. The gist of the method:
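Human CEM cells, uninfected and HIV-1-infected, received five drug concentrations, and growth was read by soluble formazan assay. Compounds giving at least 50% protection were retested; reproducible 100% protection defined confirmed active.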

For the compound `CC(=O)OCC1OC(n2cnc([N+](=O)[O-])c2Br)C(OC(C)=O)C1OC(C)=O` (configuration not stated), the EC50 – broadly, the concentration at which the effect is half-maximal – is > 200 µM and the IC50 (as a rule, the concentration that gives 50% inhibition) stood at 11.7 µM.

Consider `COC(=O)C1CCC(=S)N1C(=O)c1ccccc1` (configuration not stated), for which the EC50 was > 200 µM and the half-maximal inhibitory concentration (IC50) is > 200 µM. In the case of `COc1ccc(C2Oc3cc(OC)c(O)cc3[C@@H]2C)cc1` (some centres not stated), the EC50 was > 66.1 µM and the IC50 is 6.46 µM. Take `O=C(Cc1ccccc1)NN1C(=O)/C(=C\c2cccc([N+](=O)[O-])c2)SC1=Nc1ccccc1`: the EC50 is > 56.2 µM and the IC50 is > 56.2 µM. Take `Cc1ccc2c(ccc(/C=C\c3cc(C)c4cccnc4c3O)[n+]2C)c1`: the EC50 is > 39.8 µM and the concentration for half-maximal inhibition (IC50) was found to be 0.776 µM.

Take `N#CC1(Cc2ccccc2[N+](=O)[O-])c2ccccc2C2C(N1C(=O)c1ccccc1)C2(Cl)Cl` (configuration not stated): the result was inactive.

For `CCCCOP(=O)(/C=C/c1ccc([N+](=O)[O-])cc1)OCCCC`, the EC50 is > 20.9 µM and the half-maximal inhibitory concentration (IC50) is > 20.9 µM. On to `O=C1OCC2=C1C(c1ccc(Cl)cc1)c1cc3c(cc1O2)OCO3` (configuration not stated), for which the EC50 was > 200 µM and the IC50 came to 3.98 µM. For the compound `O=C1C(Cl)=C(Cl)C(=O)N1c1c(F)c(F)c(F)c(F)c1F`, the result was inactive.

Turning to `Cc1c(CSCC(=O)O)c(O)c2c(=O)c3c(O)c(CSCC(=O)O)c(O)c4c5c(O)c(CSCC(=O)O)c(O)c6c(=O)c7c(O)c(CSCC(=O)O)c(C)c8c1c2c(c34)c(c78)c65`, the EC50 was > 26.9 µM and the IC50 stood at 1.12 µM. As for `CSc1cc(-c2ccccn2)nc(-c2ccccn2)c1.CSc1cc(-c2ccccn2)nc(-c2ccccn2)c1.[Mn+2].[O-][Cl+3]([O-])([O-])[O-]`, the EC50 is > 0.2 µM and the IC50 was 0.0631 µM. On the same counts, the results for `Cn1c(=O)cc(NNc2ccc(Br)cc2)[nH]c1=O` are > 200 µM and 6.17 µM. In the same order, the values of `CN(O)C1CC(=O)OC1CO[Si](C)(C)C(C)(C)C` (configuration not stated) are > 200 µM and 51.3 µM.

Take `COC(=O)C1(C(=O)OC)CC2=C(S(=O)(=O)c3ccccc3)C[C@H](C#N)[C@H]2C1`: the EC50 is > 200 µM and the IC50 came out at 58.9 µM. On the same counts, the results for `Cc1nc2c(=O)n(C)c(=O)n(C)c2o1` are > 200 µM and > 200 µM.

Take `COC(=O)CCC(=O)CC(=O)C(=O)Nc1ccc(F)cc1`: the EC50 was > 45.7 µM and the IC50 is > 45.7 µM. On to `O=C1C(=Cc2ccco2)C(=O)C2CCCCC12` (configuration not stated), for which the EC50 is > 200 µM and the IC50 came to 166 µM.

Turning to `CCNc1cc2oc(=O)cc(C(F)(F)F)c2cc1C`, the EC50 was > 13.8 µM and the IC50 was > 13.8 µM. In the case of `O=C(/C=C/c1ccccc1)C[C@@H](O)C[C@@H]1CC=CC(=O)O1`, the EC50 is > 200 µM and the half-maximal inhibitory concentration (IC50) worked out at 3.16 µM. On the same counts, the results for `CC1C(=O)NC(=O)NC1=O` are > 200 µM and > 200 µM. In the same order, the values of `CC(C)NC(=O)OCc1c(COC(=O)NC(C)C)c(-c2ccc(Cl)c(Cl)c2)n2c1CCC2` are > 7.41 µM and 4.47 µM.

For `CC(Nc1ccc(S(=O)(=O)N=C(N)N)cc1)c1c2ccccc2nc2ccccc12` (configuration not stated), the result was inactive. As for `CCOP(=O)(OCC)C1CC(O)CN1OC(=O)C(C)(C)C` (configuration not stated), the EC50 was > 200 µM and the IC50 was > 200 µM.

`C[C@H]1C2=CC(=O)CC[C@@](C)(O2)[C@H]2CC[C@]3(C)[C@@H](O)CC[C@H]3[C@H]12`: the EC50 was > 589 µM and the IC50 came out at 234 µM.

Regarding `O=C(NC(Nc1ccc(F)c(Cl)c1)(C(F)(F)F)C(F)(F)F)C(C(F)(F)F)C(F)(F)F`, the EC50 is > 200 µM.

`CCCCCCCCCCCCCCCCC(C(=O)O)C(=O)O`: the EC50 is > 21.9 µM and the IC50 is > 21.9 µM. On to `COC(=O)/C=C1/C(COC(c2ccccc2)(c2ccccc2)c2ccccc2)OC(n2ccc(=O)[nH]c2=O)C1O[Si](C)(C)C(C)(C)C` (configuration not stated), for which the EC50 is > 200 µM and the IC50 is 10.7 µM. As to `CC1(C)OCC(C2OC3OC(C)(C)OC3C2OC(=S)SSC(=S)OC2C(C3COC(C)(C)O3)OC3OC(C)(C)OC32)O1` (configuration not stated), the EC50 was > 200 µM and the IC50 worked out at 16.6 µM. In the same order, the values of `Nc1nc(Cl)c(N=Nc2ccc(Cl)cc2)c(NCC2(CO)CC2)n1` are > 200 µM and > 200 µM.

For the compound `COC(=O)N/N=C(/CCCC(=O)Nc1cccc([N+](=O)[O-])c1)C(C#N)c1ccc(CC#N)cc1` (configuration not stated), the result was inactive.

With `N#CC1(Cc2ccccc2Cl)c2ccccc2C=CN1C(=O)c1ccccc1` (configuration not stated), the outcome was inactive. In the case of `COc1ccc(CNc2nc3ccccc3nc2C(=O)O)cc1OC`, the EC50 was > 200 µM and the half-inhibitory concentration (IC50) was 95.5 µM. On the same counts, the results for `O=C1OCC2(CO1)CC1C=CC2C1` (configuration not stated) are > 200 µM and > 200 µM.

For the compound `Cc1ccc(S(=O)(=O)S/C(=N\c2ccccn2)Nc2ccccn2)cc1`, the EC50 is > 324 µM and the half-maximal inhibitory concentration (IC50) came out at 83.2 µM. In the same order, the values of `CN1CCN(c2nc3c(c(=O)n(C)c(=O)n3C)n2C)CC1` are > 759 µM and > 759 µM.

As to `O=c1cnn2c(n1)OC1C(O)C(CO)OC12` (configuration not stated), the EC50 was > 200 µM and the IC50 was 19.1 µM. `CN1CC2CC3=C(CCC45CC6C(C=C34)C63CCC4(CC67CCC8C9(C)CCCC8%10C(C6CC4CC7%10)N(C)C9)OC53)C(C)(C2)C1` (configuration not stated): the result was inactive. For the compound `COc1ccc(NC2=NCCO2)c2c1CCCC2`, the EC50 is > 200 µM and the half-maximal inhibitory concentration (IC50) was determined as 77.6 µM. On the same counts, the results for `COC(=O)C1CCC(=O)N1CN(C(C)=O)c1cc(OC)ccc1OC` (configuration not stated) are > 200 µM and > 200 µM. On the same counts, the results for `O=C(OCc1ccccc1)N1CCNCCN(C(=O)OCc2ccccc2)CCNCC1` are > 200 µM and 87.1 µM. Consider `COc1ccc(C(C(N)=O)N2CCCC2)cc1` (configuration not stated), for which the EC50 was > 200 µM and the IC50 was > 200 µM. Consider `c1ccc(C2COC(c3ccc4c(c3)OCO4)O2)cc1` (configuration not stated), for which the EC50 is > 200 µM and the half-maximal inhibitory concentration (IC50) stood at 162 µM. Turning to `CC1=CC2C(O)(CC(CO)=CC3C4C(C)(C)C4(O)C(O)C(C)C32O)C1=O` (configuration not stated), the outcome was inactive. With `C=CCNC(=S)/N=C/C(C(=O)Nc1ccccc1OC)=C(\C)O`, the outcome was inactive. Turning to `CC(=O)NC1C(OCC(=O)NC(C)C(=O)NC(CCC(=O)NCCCCCNc2ccc([N+](=O)[O-])c3[nH]c4ccccc4c(=O)c23)C(N)=O)C(O)C(CO)OC1(C)OCc1ccccc1` (configuration not stated), the EC50 was > 100 µM and the half-maximal inhibitory concentration (IC50) is 3.39 µM.

Turning to `COc1cc(OC)c(-c2cc(=O)c3c(OC)c(OC)c(OC)c(OC)c3o2)cc1OC`, the EC50 is > 200 µM and the 50% inhibitory concentration (IC50) stood at 19.5 µM.

Consider `CN1C(=O)/C(=N\n2c(-c3ccccc3)nc3ccccc3c2=O)c2ccccc21`, for which the EC50 is > 200 µM and the IC50 was > 200 µM. As for `CCN(CC)C(=O)Cc1c(C(=O)N(CC)CC)c(=O)nc2sccn12`, the EC50 is > 692 µM and the IC50 was > 692 µM. Consider `CCOC(=O)c1sc2nc1CSc1sc(=S)sc1SCc1nc(sc1C(=O)OCC)-c1nc(c(C(=O)OCC)s1)CSc1sc(=S)sc1SCc1nc-2sc1C(=O)OCC`, for which the EC50 was > 200 µM and the IC50 was > 200 µM.

With `CSc1cc(SC)ncn1`, the EC50 was > 1450 µM and the half-maximal inhibitory concentration (IC50) was found to be 1020 µM. With `N#Cc1cc2ccccc2nc1SN`, the result was inactive.
